Among the data in ChEMBL document CHEMBL1130863, “N3-methyl-mafosfamide as a chemically stable, alternative prodrug of mafosfamide” (1998) are CC50 and ILS values, retold here.

One test concerns NIH3T3. Kind of test: In vitro cytotoxicity was evaluated in mouse embryo BALB/c 3T3 cells. The test is classed as functional. To be noted: read-out: LC50 (the source's name).
Another test relates to L1210. The test can be described thus: Compound was evaluated against L1210 leukemia in mice expressed as increase of life span; Compound was active. The test is classed as functional, Mus musculus.

What is called ILS is how much longer treated animals lived than controls.

Bounds are passed on as bounds.

`CN1C(SCCS(=O)(=O)O)CCOP1(=O)N(CCCl)CCCl` (stereo not drawn): the CC50 in the test with NIH3T3 was 3.6 µM. Also, the ILS in the test on L1210 is recorded as greater than 29%.

`O=P1(N(CCCl)CCCl)NCCCO1` (stereo not drawn) [CYCLOPHOSPHAMIDE ANHYDROUS]: in the test with NIH3T3, the CC50 was found to be 37.6 µM.
